{"source": "ChEMBL document CHEMBL6078680", "about": "“Improving the Stability and Anti-Infective Activity of Sea Turtle AMPs Using Multiple Structural Modification Strategies” (J Med Chem, 2024)", "key": {"[1]": {"assay": "Hemolytic activity at human Erythrocyte assessed as hemolysis at 100 microg/ml", "assay_type": "toxicity, cell-based", "details": "erythrocytes, at 100 µg/mL, read-out: Activity"}, "Peritoneal macrophage [2]": {"tested_on": "Peritoneal macrophage", "assay": "Antiinflammatory activity in mouse Peritoneal macrophage cells assessed as inhibition of LPS-induced TNF-alpha production at 20 microg/ml incubated for 6 hrs by ELISA analysis", "assay_type": "functional, cell-based", "details": "dose 20.0 µg/ml"}, "Peritoneal macrophage [3]": {"tested_on": "Peritoneal macrophage", "assay": "Antiinflammatory activity in mouse Peritoneal macrophage cells assessed as inhibition of LPS-induced IL-6 production at 20 microg/ml incubated for 6 hrs by ELISA analysis", "assay_type": "functional, cell-based", "details": "dose 20.0 µg/ml"}, "Peritoneal macrophage [4]": {"tested_on": "Peritoneal macrophage", "assay": "Antiinflammatory activity in mouse Peritoneal macrophage cells assessed as inhibition of LPS-induced IL-6 production my measuring fold change at 20 microg/ml incubated for 6 hrs by ELISA analysis", "assay_type": "functional", "details": "dose 20 µg/ml"}, "Staphylococcus aureus": {"tested_on": "Staphylococcus aureus", "assay": "Antimicrobial activity against Staphylococcus aureus CMCC 26003 at 5 times MIC measured at 180 mins", "assay_type": "functional, organism-based"}}, "note": "Activity calls are given as the source filed them. The rule behind the calls is not given here. Starred links: 1 amine or outer side, 2 acyl side, 3 side chain; linkers in the order of their positions; H or OH if unused. Positions of bridges follow the written chain, without caps; N, C: chain ends. Non-standard residues stand in square brackets, D forms with d. Residues, ends and D or L forms follow the SMILES beside them. X1 = C[C@@](CCCCC=[*:3])(N[*:1])C(=O)[*:2]", "data": [{"smiles": "CC[C@H](C)[C@H](NC(=O)[C@H](CCCNC(=N)N)NC(=O)[C@H](CO)NC(=O)[C@H](Cc1c[nH]cn1)NC(=O)[C@H](CCCNC(=N)N)NC(=O)[C@H](CC(C)C)NC(=O)[C@@H](NC(=O)[C@H](CCCNC(=N)N)NC(=O)CNC(=O)[C@H](CC(C)C)NC(=O)[C@H](CCC(N)=O)NC(=O)[C@H](CCCCN)NC(=O)[C@]1(C)CCCC/C=C\\CCCC[C@](C)(N)C(=O)N[C@@H](CCCCN)C(=O)N[C@@H](CCCCN)C(=O)N[C@@H](C(C)C)C(=O)N1)C(C)C)C(=O)N[C@H](C(=O)N[C@H](C(=O)NCC(=O)NCC(=O)N[C@@H](CCCNC(=N)N)C(=O)N[C@@H](CCSC)C(=O)N[C@@H](CCCNC(=N)N)C(=O)N[C@@H](Cc1ccccc1)C(=O)O)C(C)C)[C@@H](C)O", "note": "(H-[X1]KKV[X1]KQLGRVLRHSRITVGGRMRF-OH; staple (Z) 1-5)", "values": [{"measurement": "hemolysis at 100 microg/ml", "setting": "[1]", "result": "< 5", "unit": "%"}, {"measurement": "Activity", "setting": "Peritoneal macrophage [2]", "result": "Active"}, {"measurement": "Activity", "setting": "Peritoneal macrophage [3]", "result": "Active"}, {"measurement": "fold change (FC)", "setting": "Peritoneal macrophage [4]", "result": 2}, {"measurement": "Activity", "setting": "Staphylococcus aureus", "result": "inactive"}]}]}
